Columns and labels:
Assay in all cases: SRB growth inhibition, 93 cell lines panel
Type in all cases: cell-based
J82 = details: Homo sapiens; J82, bladder; read-out: GI50 of etoposide (±Compound 1)
Procedure: (§1) 90 μl of cells, after a 48-hour pre-growth period, were treated by mixing with 10 μl of the compound-containing media (resulting in a final DMSO concentration of 0.1%).
(§2) This is the drug concentration causing a 50% reduction compared to the net protein increase in control cells during the drug incubation period. In other words, G150 is IC50 corrected for time zero. […] TGI was calculated from Ti=Tz. […] It was calculated as 100×[(Ti−Tz)/Tz]=−50.

MV4-11 = details: Homo sapiens; MV4-11, hematological; read-out: GI50 of etoposide (±Compound 1)
Procedure: as §1, §2

DU145 = details: Homo sapiens, DU-145; DU145, prostate; read-out: GI50 of etoposide (±Compound 1)
Procedure: as §1, §2

HCT116 = details: Homo sapiens, HCT-116; HCT116, colon; read-out: GI50 of etoposide (±Compound 1)
Procedure: as §1, §2

SAOS2 = details: Homo sapiens, SAOS-2; SAOS2, bone; read-out: GI50 of etoposide (±Compound 1)
Procedure: as §1, §2

C33A = details: Homo sapiens, C-33-A, cervix, read-out: GI50 of etoposide (±Compound 1)
Procedure: as §1, §2

OVCAR4 = details: Homo sapiens, OVCAR-4; OVCAR4, ovary; read-out: GI50 of etoposide (±Compound 1)
Procedure: as §1, §2

RDES = details: RD-ES, bone, read-out: GI50 of etoposide (±Compound 1)
Procedure: as §1, §2

JEG3 = details: Homo sapiens, JEG-3; JEG3, placenta; read-out: GI50 of etoposide (±Compound 1)
Procedure: as §1, §2

SKLMS1 = details: Homo sapiens, SK-LMS-1; SKLMS1, uterus; read-out: GI50 of etoposide (±Compound 1)
Procedure: as §1, §2

SKMEL5 = details: Homo sapiens, SK-MEL-5; SKMEL5, skin; read-out: GI50 of etoposide (±Compound 1)
Procedure: as §1, §2

SW620 = details: Homo sapiens, SW-620; SW620, colon; read-out: GI50 of etoposide (±Compound 1)
Procedure: as §1, §2

15M15C3 = details: 15M15C3, bladder; read-out: GI50 of etoposide (±Compound 1)
Procedure: as §1, §2

152OS = details: bone, read-out: GI50 of etoposide (±Compound 1)
Procedure: as §1, §2

NCIH292 = details: Homo sapiens, NCI-H292; NCIH292, lung; read-out: GI50 of etoposide (±Compound 1)
Procedure: as §1, §2

A673 = details: Homo sapiens; A673, muscle; read-out: GI50 of etoposide (±Compound 1)
Procedure: as §1, §2

NCIH460 = details: Homo sapiens, NCI-H460; NCIH460, lung; read-out: GI50 of etoposide (±Compound 1)
Procedure: as §1, §2

A549 = details: Homo sapiens; A549, lung; read-out: GI50 of etoposide (±Compound 1)
Procedure: as §1, §2

BT20 = details: Homo sapiens, BT-20; BT20, breast; read-out: GI50 of etoposide (±Compound 1)
Procedure: as §1, §2

5637 = details: 5637, bladder; read-out: GI50 of etoposide (±Compound 1)
Procedure: as §1, §2

22RV1 = details: Homo sapiens; 22RV1, prostate; read-out: GI50 of etoposide (±Compound 1)
Procedure: as §1, §2

LOVO = details: Homo sapiens, colon, read-out: GI50 of etoposide (±Compound 1)
Procedure: as §1, §2

HL-60 = details: Homo sapiens; HL-60, hematological; read-out: GI50 of etoposide (±Compound 1)
Procedure: as §1, §2

L-363 = details: Homo sapiens; L-363, hematological; read-out: GI50 of etoposide (±Compound 1)
Procedure: as §1, §2

HS578T = details: Homo sapiens, Hs-578T, breast, read-out: GI50 of etoposide (±Compound 1)
Procedure: as §1, §2

COLO205 = details: Homo sapiens, COLO 205; COLO205, colon; read-out: GI50 of etoposide (±Compound 1)
Procedure: as §1, §2

K-562 = details: Homo sapiens, K562; K-562, hematological; read-out: GI50 of etoposide (±Compound 1)
Procedure: as §1, §2

PC3 = details: Homo sapiens, PC-3; PC3, prostate; read-out: GI50 of etoposide (±Compound 1)
Procedure: as §1, §2

RAMOS = details: Homo sapiens, hematological, read-out: GI50 of etoposide (±Compound 1)
Procedure: as §1, §2

KASUMI-1 = details: Homo sapiens; KASUMI-1, hematological; read-out: GI50 of etoposide (±Compound 1)
Procedure: as §1, §2

SKOV3 = details: Homo sapiens, SK-OV-3; SKOV3, ovary; read-out: GI50 of etoposide (±Compound 1)
Procedure: as §1, §2

- GI50 (MV4-11): 38 nM
- GI50 (DU145): 701 nM
- GI50 (HCT116): 770 nM
- GI50 (OVCAR4): > 10000 nM
- GI50 (SKLMS1): 1640 nM
- GI50 (SKMEL5): 558 nM
- GI50 (SW620): 302 nM
- GI50 (A549): 390 nM
- GI50 (BT20): 73 nM
- GI50 (22RV1): 234 nM
- GI50 (LOVO): 606 nM
- GI50 (HL-60): 120 nM
- GI50 (COLO205): 1050 nM
- GI50 (K-562): 277 nM
- GI50 (PC3): 5240 nM
- GI50 (RAMOS): 204 nM
- GI50 (SKOV3): 2990 nM
Structure (SMILES): COc1cc([C@@H]2c3cc4c(cc3[C@@H](O[C@@H]3O[C@@H]5CO[C@@H](C)O[C@H]5[C@H](O)[C@H]3O)[C@H]3COC(=O)[C@H]23)OCO4)cc(OC)c1O [Etoposide]
- GI50 (J82): 7930 nM
- GI50 (SAOS2): 1460 nM
- GI50 (C33A): 393 nM
- GI50 (RDES): 412 nM
- GI50 (JEG3): 41 nM
- GI50 (15M15C3): 604 nM
- GI50 (152OS): 1080 nM
- GI50 (NCIH292): 1650 nM
- GI50 (A673): 1080 nM
- GI50 (NCIH460): 167 nM
- GI50 5637: 685 nM
- GI50 (L-363): 327 nM
- GI50 (HS578T): 874 nM
- GI50 (KASUMI-1): 494 nM

— US11246929B2, “Combination of a protein kinase inhibitor and an additional chemotherapeutic agent” (Merck Patent GmbH, priority 2016, dated 2022)
